Test: xn = mol fraction of the nth substance listed
Details: for speed of sound / viscosity / mass density: 100 kPa, Liquid; for surface tension liquid-gas: Ring tensiometer

CCN1CCCC1=O [1-ethyl-2-pyrrolidinone] + OCCNCCO
Details | mass density, 303.15 K [kg/m3] | mass density, 313.15 K [kg/m3] | mass density, 323.15 K [kg/m3] | speed of sound, 303.15 K [m/s] | speed of sound, 313.15 K [m/s] | speed of sound, 323.15 K [m/s] | surface tension liquid-gas, 313.15 K [mN/m] | viscosity, 303.15 K [mPa·s] | viscosity, 313.15 K [mPa·s] | viscosity, 323.15 K [mPa·s]
x1 = 0.1 | – | 1070.86 | 1064.04 | – | 1645.8 | 1619.5 | 42 | – | 108.68 | 57.82
x1 = 0.2005 | – | 1058.79 | 1051.64 | – | 1610.1 | 1582.5 | 40.4 | – | 57.66 | 33.78
x1 = 0.3001 | – | 1047.53 | 1039.8 | – | 1578.7 | 1550 | 38.8 | – | 32.13 | 20.16
x1 = 0.4002 | – | 1036.08 | 1028.42 | – | 1550.5 | 1519.9 | 38.3 | – | 18.38 | 12.28
x1 = 0.4999 | – | 1025.43 | 1017.57 | – | 1526.2 | 1495.1 | 37 | – | 10.8 | 7.624
x1 = 0.6 | – | 1015.25 | 1007.21 | – | 1503.7 | 1471 | 36.3 | – | 6.732 | 5.011
x1 = 0.7001 | – | 1005.78 | 997.61 | – | 1484.4 | 1450.7 | 35.9 | – | 4.419 | 3.439
x1 = 0.8001 | – | 996.9 | 988.58 | – | 1469.1 | 1434.7 | 34.8 | – | 3.014 | 2.429
x1 = 0.8995 | – | 988.38 | 979.92 | 1487.8 | 1451.6 | 1415.6 | 34.4 | 2.496 | 2.058 | 1.734
x1 = 1 | 989.34 | 980.76 | 972.16 | 1475 | 1437.6 | 1400.6 | 34.2 | 1.777 | 1.515 | 1.31
